{"source": "patent US20250381210A1", "about": "“METHODS OF TREATING VASCULAR DEMENTIA” (The Regents of the University of California, priority 2024, published 2025)", "key": {"[1]": {"test_system": "VaD mouse model", "assay": "Satb2 and Cux1 immunostaining in cortical Layer VI after delayed piclidenoson treatment", "format": "in vivo", "settings": "motor somatosensory cortex", "description": "(§1) VaD in the mouse was modified from white matter stroke model. Briefly, the mice were anesthetized with 2% isoflurane and securely mounted onto a stereotaxic apparatus. Core body temperature of the mice was maintained at 36.5 to 37.5° C. A midline incision was made down the scalp, and a craniotomy was performed with a dental drill. A Nanoliter injector (World Precision Instruments) was used to infuse 27 μg/μL of L-NIO (Sigma-Aldrich, 400-600) in sterile saline (Hospira) with Micro4 Controller injector (World Precision Instruments), at the speed of 100 nL/min. To avoid damage to motor cortex, the glass pipette (Wrld Precision Instruments, 1B100F-4) containing the L-NIO was inserted through the cortex of the frontal lobe into the underlying subcortical WM at an angle of 36°. Three injections (each of 0.3 μL of L-NIO solution) were made in the following coordinates: AP +0.80 mm, ML +2.00 mm, DV −1.56 mm; AP +0.80 mm, ML +2.83 mm, DV −1.60 mm; and AP +0.80 mm, ML +3.66 mm, DV −1.61 mm. Localized vasoconstriction leads to focal ischemia in the subcortical WM. Female mice were excluded because estrogen is potentially preventative against ischemic stroke.\n(§2) Immunostaining was performed by brain section blocking in 5% normal donkey serum for 1 hour at room temperature, incubating in primary antibody overnight at 4° C., and in secondary antibody for 1 hour at room temperature. For the performance using CD39 and Pdgfrβ antibodies, antigen retrieval using sodium citrate buffer ([…], pH 6.0), in pressure cooker for 3 min was applied before blocking. All sections were counterstained with 4′,6-diamidino-2-phenylindole (DAPI). The antibodies used in this study are listed below.\n(§3) • 1. Quantification of MBP and NF160 volume for FIGS. 26I, 28M, 28N. Imaris (Bitplane, version 10.0.0) using surface function; all the channels were threshold with the same absolute intensity against the background. Because the absolute volume of cerebral white matter varies between coronal slices depending on the coordinate along anterior-posterior axis, it is difficult to directly compare the absolute volume of NF160 or MBP between groups. The volume of ipsilateral white matter is very similar to the contralateral white matter, we first normalized the volume of NF160 or MBP at the ipsilateral side to the contralateral side (no lesion), and then compare the normalized value between groups. This may be a more reasonable way to investigate how the axon reprojection and myelin regrowth is changed by piclidenoson (CF101) treatment. For each animal, 4 slices, with 300 μm interval across the lesion core along the anterior-posterior axis, were quantified. • 2. Quantification of absolute core sizes (FIG. 16F). For each animal, all the slices that cover the lesion core were stained with MBP, NF160, DAPI, and GFAP. The area of core is defined as brain region with NF160/MBP debris, high density of DAPI, and GFAP boundary. The size of core area is measured in ImageJ. The absolute core size is defined by the sum of core area×the slice thickness from all slices. • 3. Quantification of relative core sizes (FIG. 28I, 28L). For each animal, 4 slices, with 300 μm interval across the lesion core along the anterior-posterior axis, were quantified using ImageJ. The relative core sizes were normalized by the average of vehicle treated group. • 4. Quantification of c-Fos cells (FIG. 16R, 16S, 28Q, 28R). For slices from prefrontal cortex, the number of c-Fos cells were quantified by Imaris using spots function, and normalized with the number of neurons (NeuN+) in the same region of interest (ROI). For slices from hippocampus, the number of c-Fos cells were quantified by Imaris and normalized with the volume of ROI because it is difficult to normalize with the number of neurons due to compact pyramidal cell layer. The same quality threshold was used for all samples. • 5. Quantification of CD39 in human IHC (FIG. 28D, 28E). […]"}, "[2]": {"test_system": "VaD mouse model", "assay": "Grid walking task after delayed piclidenoson treatment", "format": "in vivo", "settings": "three weeks post piclidenoson treatment", "description": "as §1, with “stroke. Osmotic mini-pumps (1002, 1004) were subcutaneously implanted and connected to right lateral ventricle through brain infusion kit 3 (Alzet). The brain infusion kits were fixed onto the skull with super glue (Loctite, 45198). For 4-week treatment, 1004 mini-pumps were used to delivery 400 µM of piclidenoson (in 1% DMSO in saline) at the speed of 0.11 μL/h; For 2-week treatment, 1002 mini-pumps were used to deliver 200 μM of piclidenoson at the speed of 0.23 μL/h. For Grid walking test, the mice were tested 1-day pre-, 7-day, 30-day, and 60-day post-VaD in progressiveness investigation, and 1-day pre-, 4-day and 21-day post-VaD in piclidenoson treatment study. Behavior tests were scored by observers who were masked to the treatment group of the animals.” for “stroke.”"}, "[3]": {"settings": "recent phase III clinical trials for psoriasis; cited from earlier work"}, "[4]": {"test_system": "VaD mouse model", "assay": "Delayed piclidenoson (5 days after VaD induction); lesion size, axon and myelin volume by immunostaining", "format": "in vivo", "settings": "delayed treatment from 5 days after VaD induction, vs vehicle; for VaD lesion size: examined 3 weeks after treatment", "description": "as §1, §2\nHigh-resolution confocal images in z-stacks were acquired (Nikon C2). Area measurements of the infarct core, WM axonal projections stained with NF160 and MBP were quantified with Imaris (Bitplane, version 10.0.0) using surface function; all the channels were threshold with the same absolute intensity against the background. The parameters for scanning were kept constant across treatment, and conditions.\nas §3, with “(ROI).” for “(ROI). For slices from hippocampus, the number of c-Fos cells were quantified by Imaris and normalized with the volume of ROI because it is difficult to normalize with the number of neurons due to compact pyramidal cell layer. The same quality threshold was used for all samples. • 5. Quantification of CD39 in human IHC (FIG. 28D, 28E).”"}, "[5]": {"test_system": "VaD mouse model", "assay": "Acute piclidenoson, infusion into lateral ventricle 30-min after VaD induction; lesion size and BBB leakage by immunostaining", "format": "in vivo", "settings": "acute administration 30-min post stroke, for 1-2 weeks, direct infusion into lateral ventricle, vs vehicle", "description": "as §1, §2\nHigh-resolution confocal images in z-stacks were acquired (Nikon C2). Area measurements of the infarct core, WM axonal projections stained with NF160 and MBP were quantified with Imaris (Bitplane, version 10.0.0) using surface function; all the channels were threshold with the same absolute intensity against the background. […]\n• 1. Quantification of MBP and NF160 volume for FIGS. 26I, 28M, 28N. […] For each animal, 4 slices, with 300 μm interval across the lesion core along the anterior-posterior axis, were quantified. • 2. Quantification of absolute core sizes (FIG. 16F). […] The size of core area is measured in ImageJ. […] Quantification of relative core sizes (FIG. 28I, 28L). For each animal, 4 slices, with 300 μm interval across the lesion core along the anterior-posterior axis, were quantified using ImageJ. […] Quantification of c-Fos cells (FIG. 16R, 16S, 28Q, 28R). For slices from prefrontal cortex, the number of c-Fos cells were quantified by Imaris using spots function, and normalized with the number of neurons (NeuN+) in the same region of interest (ROI). […]"}, "[6]": {"test_system": "VaD mouse model", "assay": "Novel Object Recognition (NOR) test after delayed piclidenoson treatment", "format": "in vivo", "settings": "delayed treatment from 5 days after VaD induction, legend: one sample paired t test compared to 50%", "experimental": "VaD in the mouse was modified from white matter stroke model. Briefly, the mice were anesthetized with 2% isoflurane and securely mounted onto a stereotaxic apparatus. Core body temperature of the mice was maintained at 36.5 to 37.5° C. A midline incision was made down the scalp, and a craniotomy was performed with a dental drill. A Nanoliter injector (World Precision Instruments) was used to infuse 27 μg/μL of L-NIO (Sigma-Aldrich, 400-600) in sterile saline (Hospira) with Micro4 Controller injector (World Precision Instruments), at the speed of 100 nL/min. To avoid damage to motor cortex, the glass pipette (Wrld Precision Instruments, 1B100F-4) containing the L-NIO was inserted through the cortex of the frontal lobe into the underlying subcortical WM at an angle of 36°. Three injections (each of 0.3 μL of L-NIO solution) were made in the following coordinates: AP +0.80 mm, ML +2.00 mm, DV −1.56 mm; AP +0.80 mm, ML +2.83 mm, DV −1.60 mm; and AP +0.80 mm, ML +3.66 mm, DV −1.61 mm. Localized vasoconstriction leads to focal ischemia in the subcortical WM. […] Osmotic mini-pumps (1002, 1004) were subcutaneously implanted and connected to right lateral ventricle through brain infusion kit 3 (Alzet). The brain infusion kits were fixed onto the skull with super glue (Loctite, 45198). […] All tests were performed 3-4 weeks after VaD. […] For NOR, the testing mice were allowed to explore an open field arena (30 cm×30 cm) with 2 identical objects for 12 min on the first day. Then the one object was replaced to a novel object and the mice were allowed to explore the 2 different objects for 8 min. The exploration was recorded and the time to explore each object was analyzed by ANY-maze. The data were presented as exploration ratio of time spent exploring the novel object versus both objects. For NOR, mice were habituated in an open field arena (41.5 cm×41.5 cm×41.5 cm) for 10 min. […] The exploration was recorded and the time to explore each object was analyzed by ANY-maze, and/or manually hand-scored. […]"}, "[7]": {"test_system": "A3AR", "settings": "cited from earlier work"}, "[8]": {"test_system": "VaD mouse model", "assay": "c-Fos quantification in PFC (AC) and HPC (CA2/3) after delayed piclidenoson treatment", "format": "in vivo", "settings": "VaD animals", "description": "as §1, §2, §3"}}, "data": [{"molecule": "CNC(=O)[C@H]1O[C@@H](n2cnc3c(NCc4cccc(I)c4)ncnc32)[C@H](O)[C@@H]1O", "note": "[piclidenoson, 1-deoxy-1-[6-[(iodophenyl)methyl]amino]9H-purine-9-yl]-N-methyl-(-D-ribofuranuronamide]", "values": [{"measurement": "Cux1 expression, Cux1+/NeuN (%) in Layer VI above infarct lesion", "setting": "[1]", "result": "significantly ameliorated"}, {"measurement": "Satb2 expression, Satb2+/NeuN (%) in Layer VI near infarct lesion", "setting": "[1]", "result": "significantly ameliorated"}, {"measurement": "Satb2 expression, Satb2+/NeuN (%) in Layer VI near infarct lesion", "setting": "[1]; listed as CD101", "result": "VaD_Veh vs VaD_CD101, *p<0.05"}, {"measurement": "Cux1 expression, Cux1+/NeuN (%) in Layer VI above infarct lesion", "setting": "[1]; listed as CF101", "result": "significantly ameliorated"}, {"measurement": "Satb2 expression, Satb2+/NeuN (%) in Layer VI near infarct lesion", "setting": "[1]; listed as CF101", "result": "significantly ameliorated"}, {"measurement": "Cux1 expression, Cux1+/NeuN (%) in Layer VI above infarct lesion", "setting": "[1]; listed as Pic", "result": "Con_Veh vs VaD_Pic, n.s.=not significant"}, {"measurement": "Satb2 expression, Satb2+/NeuN (%) in Layer VI near infarct lesion", "setting": "[1]; listed as Pic", "result": "Con_Veh vs VaD_Pic, n.s.=not significant"}, {"measurement": "grid walking task, motor deficit", "setting": "[2]", "result": "successfully rescued the motor deficit"}, {"measurement": "grid walking task, motor deficit", "setting": "[2]; listed as CF101", "result": "successfully rescued the motor deficit"}, {"measurement": "grid walking task, motor deficit", "setting": "[2]; listed as Pic", "result": "VaD_Veh vs VaD_Pic, ##p<0.01"}, {"measurement": "safety in humans", "setting": "[3]", "result": "safely used in humans"}, {"measurement": "VaD lesion size", "setting": "[4]", "result": "significant reduction of lesion size"}, {"measurement": "VaD lesion size", "setting": "[4]; listed as CF101", "result": "significant reduction of lesion size"}, {"measurement": "VaD lesion size", "setting": "[4]; listed as Pic", "result": "Veh vs Pic, *p<0.05"}, {"measurement": "axon volume / axonal projections (NF160 immunostaining)", "setting": "[4]", "result": "not changed"}, {"measurement": "myelin volume / markers of myelination (MBP immunostaining) in affected WM", "setting": "[4]", "result": "significantly increased"}, {"measurement": "axon volume / axonal projections (NF160 immunostaining)", "setting": "[4]; listed as CF101", "result": "not changed"}, {"measurement": "myelin volume / markers of myelination (MBP immunostaining) in affected WM", "setting": "[4]; listed as CF101", "result": "significantly increased"}, {"measurement": "axon volume / axonal projections (NF160 immunostaining)", "setting": "[4]; listed as Pic", "result": "Veh vs Pic, n.s.=not significant"}, {"measurement": "myelin volume / markers of myelination (MBP immunostaining) in affected WM", "setting": "[4]; listed as Pic", "result": "Veh vs Pic, *p<0.05"}, {"measurement": "VaD lesion size", "setting": "[5]", "result": "may reduce lesion size"}, {"measurement": "blood brain barrier (BBB) leakage (immunoreactivity of mouse IgG)", "setting": "[5]", "result": "significantly reduced blood brain barrier (BBB) leakage"}, {"measurement": "blood brain barrier (BBB) leakage (immunoreactivity of mouse IgG)", "setting": "[5]; listed as CF101", "result": "reduced blood brain barrier (BBB) leakage"}, {"measurement": "blood brain barrier (BBB) leakage (immunoreactivity of mouse IgG)", "setting": "[5]; listed as Pic", "result": "Veh vs Pic, *p<0.05"}, {"measurement": "NOR memory test, memory deficits (novel object preference)", "setting": "[6]", "result": "significantly reduced memory deficits"}, {"measurement": "NOR memory test, memory deficits (novel object preference)", "setting": "[6]; listed as CF101", "result": "significantly reduced memory deficits"}, {"measurement": "NOR memory test, memory deficits (novel object preference)", "setting": "[6]; listed as Pic", "result": "Con_Veh, Con_Pic, and VaD_Pic groups, *p<0.05"}, {"measurement": "potency in A3AR action relative to A1AR and A2bAR", "setting": "[7]; A3AR vs A1AR and A2bAR", "result": 50, "unit": "fold"}, {"measurement": "non-specific effects on other adenosine receptors", "setting": "[7]", "result": "minimal non-specific effects on other adenosine receptors"}, {"measurement": "c-Fos expression in HPC CA2/3, c-Fos+ cell numbers per mm^3", "setting": "[8]", "result": "restored c-Fos expression"}, {"measurement": "c-Fos expression in PFC anterior cingulate (AC), c-Fos/NeuN (%)", "setting": "[8]", "result": "restored c-Fos expression"}, {"measurement": "c-Fos expression in HPC CA2/3, c-Fos+ cell numbers per mm^3", "setting": "[8]; listed as CF101", "result": "restored c-Fos expression"}, {"measurement": "c-Fos expression in PFC anterior cingulate (AC), c-Fos/NeuN (%)", "setting": "[8]; listed as CF101", "result": "restored c-Fos expression"}, {"measurement": "c-Fos expression in HPC CA2/3, c-Fos+ cell numbers per mm^3", "setting": "[8]; listed as Pic", "result": "Con_Veh vs VaD_Pic, n.s.=not significant"}, {"measurement": "c-Fos expression in PFC anterior cingulate (AC), c-Fos/NeuN (%)", "setting": "[8]; listed as Pic", "result": "Con_Veh vs VaD_Pic, n.s.=not significant"}]}]}
